Data: ChEMBL document CHEMBL3621135 (ACS Med Chem Lett, 2015)
pIC50: −log10 of the molar value.

Tests used:
[1] = biological target: Tyrosine-protein kinase JAK2 (Homo sapiens, UniProt O60674); test: Inhibition of recombinant JAK2 (unknown origin) using 5-FAM-KKKKEEIYFFFG-OH substrate and ATP incubated for 180 mins by […] method
[2] = biological target: Tyrosine-protein kinase JAK1 (Homo sapiens, UniProt P23458); test: Inhibition of recombinant JAK1 (unknown origin) using 5-FAM-KKKKEEIYFFFG-OH substrate and ATP incubated for 180 mins by […] method
Sequence of Tyrosine-protein kinase JAK1 (P23458 whole entry): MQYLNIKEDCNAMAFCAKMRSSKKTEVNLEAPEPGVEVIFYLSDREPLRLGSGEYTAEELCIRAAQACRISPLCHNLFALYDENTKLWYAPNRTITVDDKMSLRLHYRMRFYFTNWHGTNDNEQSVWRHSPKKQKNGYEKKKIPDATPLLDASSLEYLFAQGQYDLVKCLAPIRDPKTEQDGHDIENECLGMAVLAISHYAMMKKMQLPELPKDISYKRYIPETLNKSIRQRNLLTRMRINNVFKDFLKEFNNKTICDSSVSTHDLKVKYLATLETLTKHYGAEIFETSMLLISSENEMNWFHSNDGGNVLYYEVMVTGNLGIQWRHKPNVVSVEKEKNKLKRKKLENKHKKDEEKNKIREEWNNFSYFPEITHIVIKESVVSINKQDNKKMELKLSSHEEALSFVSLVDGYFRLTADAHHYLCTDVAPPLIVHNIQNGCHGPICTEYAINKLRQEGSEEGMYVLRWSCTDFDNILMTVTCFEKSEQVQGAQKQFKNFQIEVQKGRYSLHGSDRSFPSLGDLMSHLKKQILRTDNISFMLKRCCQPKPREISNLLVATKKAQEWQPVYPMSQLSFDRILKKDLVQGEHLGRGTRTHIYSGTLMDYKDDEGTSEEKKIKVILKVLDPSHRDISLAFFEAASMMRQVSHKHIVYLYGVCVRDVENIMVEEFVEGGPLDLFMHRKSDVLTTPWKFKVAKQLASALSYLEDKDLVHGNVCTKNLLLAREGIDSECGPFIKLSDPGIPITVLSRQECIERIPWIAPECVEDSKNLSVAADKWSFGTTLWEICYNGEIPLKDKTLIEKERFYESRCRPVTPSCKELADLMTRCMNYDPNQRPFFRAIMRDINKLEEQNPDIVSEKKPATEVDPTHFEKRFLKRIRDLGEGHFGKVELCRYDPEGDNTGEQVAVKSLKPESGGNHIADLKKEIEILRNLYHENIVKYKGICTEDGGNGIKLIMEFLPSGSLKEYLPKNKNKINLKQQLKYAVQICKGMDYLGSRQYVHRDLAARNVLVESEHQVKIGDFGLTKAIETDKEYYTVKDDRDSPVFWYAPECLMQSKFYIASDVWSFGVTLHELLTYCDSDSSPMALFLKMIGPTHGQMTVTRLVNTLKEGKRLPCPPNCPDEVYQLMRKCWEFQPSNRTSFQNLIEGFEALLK

[3] = biological target: T1, Tyrosine-protein kinase JAK3 (Homo sapiens, UniProt P52333); test: Inhibition of recombinant JAK3 (unknown origin) using 5-FAM-KKKKEEIYFFFG-OH substrate and ATP incubated for 180 mins by […] method
T1 sequence (P52333 whole entry): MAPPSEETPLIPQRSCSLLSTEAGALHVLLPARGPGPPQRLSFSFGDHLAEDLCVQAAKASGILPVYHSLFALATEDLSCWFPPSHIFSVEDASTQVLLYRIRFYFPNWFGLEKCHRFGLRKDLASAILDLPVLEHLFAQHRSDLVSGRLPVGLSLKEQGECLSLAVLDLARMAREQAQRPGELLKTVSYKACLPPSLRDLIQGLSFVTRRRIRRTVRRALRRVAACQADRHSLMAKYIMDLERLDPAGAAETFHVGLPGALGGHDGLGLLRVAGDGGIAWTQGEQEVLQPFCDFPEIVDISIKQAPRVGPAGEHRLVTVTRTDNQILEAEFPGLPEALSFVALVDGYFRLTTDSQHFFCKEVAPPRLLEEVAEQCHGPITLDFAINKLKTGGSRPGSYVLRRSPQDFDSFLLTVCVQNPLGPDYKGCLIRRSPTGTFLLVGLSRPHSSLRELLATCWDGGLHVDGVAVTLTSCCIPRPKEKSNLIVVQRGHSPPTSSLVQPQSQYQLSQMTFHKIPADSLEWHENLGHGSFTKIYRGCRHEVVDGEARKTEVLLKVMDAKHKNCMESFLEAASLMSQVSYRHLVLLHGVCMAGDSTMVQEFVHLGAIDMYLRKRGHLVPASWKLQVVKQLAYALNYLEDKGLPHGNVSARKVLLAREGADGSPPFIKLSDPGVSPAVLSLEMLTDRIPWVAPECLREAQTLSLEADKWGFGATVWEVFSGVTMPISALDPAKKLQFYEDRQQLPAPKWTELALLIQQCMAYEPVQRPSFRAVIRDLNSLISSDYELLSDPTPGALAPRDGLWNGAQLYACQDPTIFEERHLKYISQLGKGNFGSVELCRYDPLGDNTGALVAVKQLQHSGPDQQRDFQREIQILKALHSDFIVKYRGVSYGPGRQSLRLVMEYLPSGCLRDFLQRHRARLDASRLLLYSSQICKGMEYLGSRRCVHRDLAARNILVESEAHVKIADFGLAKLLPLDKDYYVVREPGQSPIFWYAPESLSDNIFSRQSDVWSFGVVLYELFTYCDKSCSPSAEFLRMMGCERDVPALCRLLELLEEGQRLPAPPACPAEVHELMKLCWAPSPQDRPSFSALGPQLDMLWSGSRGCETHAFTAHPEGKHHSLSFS

[4] = Antiproliferative activity against human SET2 cells incubated for 72 hrs by [3H] thymidine incorporation assay; type: functional, cell-based; conditions: SET-2
Liver microsome = test: Drug metabolism in human liver microsomes assessed as thiourea formation at 10 uM in presence of NADPH by HPLC/UV/MS method; type: ADME
[5] = biological target: Non-receptor tyrosine-protein kinase TYK2 (Homo sapiens, UniProt P29597); test: Inhibition of recombinant TYK2 (unknown origin) by scintillation counting method
Sequence of Non-receptor tyrosine-protein kinase TYK2 (P29597 whole entry): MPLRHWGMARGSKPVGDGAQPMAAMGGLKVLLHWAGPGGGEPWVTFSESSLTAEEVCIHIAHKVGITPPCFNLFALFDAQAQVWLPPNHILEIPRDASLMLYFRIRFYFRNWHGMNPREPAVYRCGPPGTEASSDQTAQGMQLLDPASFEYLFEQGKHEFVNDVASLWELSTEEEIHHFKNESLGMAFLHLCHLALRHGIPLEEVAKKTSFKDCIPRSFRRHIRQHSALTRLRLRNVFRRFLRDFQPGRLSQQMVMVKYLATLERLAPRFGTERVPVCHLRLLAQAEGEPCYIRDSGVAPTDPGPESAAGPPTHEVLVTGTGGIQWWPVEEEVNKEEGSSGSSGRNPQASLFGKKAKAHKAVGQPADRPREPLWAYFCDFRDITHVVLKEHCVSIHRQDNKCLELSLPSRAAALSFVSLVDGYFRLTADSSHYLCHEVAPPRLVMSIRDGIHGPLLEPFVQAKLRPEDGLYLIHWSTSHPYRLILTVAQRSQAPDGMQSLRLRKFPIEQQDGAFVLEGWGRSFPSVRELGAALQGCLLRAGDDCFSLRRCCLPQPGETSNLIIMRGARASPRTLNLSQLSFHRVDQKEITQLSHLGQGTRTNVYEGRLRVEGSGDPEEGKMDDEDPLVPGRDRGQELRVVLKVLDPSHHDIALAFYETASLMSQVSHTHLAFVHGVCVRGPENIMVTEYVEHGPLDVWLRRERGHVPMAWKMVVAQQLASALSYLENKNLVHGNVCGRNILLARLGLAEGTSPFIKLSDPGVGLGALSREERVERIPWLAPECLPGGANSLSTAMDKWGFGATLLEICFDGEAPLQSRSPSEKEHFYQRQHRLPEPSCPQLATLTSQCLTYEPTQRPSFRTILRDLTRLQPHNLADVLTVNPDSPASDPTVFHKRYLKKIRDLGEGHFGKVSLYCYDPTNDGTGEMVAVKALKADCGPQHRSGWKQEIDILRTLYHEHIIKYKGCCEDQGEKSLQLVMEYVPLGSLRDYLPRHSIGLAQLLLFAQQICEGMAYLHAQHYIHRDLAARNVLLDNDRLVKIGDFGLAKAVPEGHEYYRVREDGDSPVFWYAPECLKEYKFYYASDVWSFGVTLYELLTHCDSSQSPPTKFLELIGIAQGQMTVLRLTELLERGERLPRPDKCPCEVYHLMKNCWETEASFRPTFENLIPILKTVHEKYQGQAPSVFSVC

hERG = hERG (Homo sapiens, UniProt Q12809); test: Inhibition of human ERG channel at 30 uM
Sequence of hERG (Q12809 whole entry): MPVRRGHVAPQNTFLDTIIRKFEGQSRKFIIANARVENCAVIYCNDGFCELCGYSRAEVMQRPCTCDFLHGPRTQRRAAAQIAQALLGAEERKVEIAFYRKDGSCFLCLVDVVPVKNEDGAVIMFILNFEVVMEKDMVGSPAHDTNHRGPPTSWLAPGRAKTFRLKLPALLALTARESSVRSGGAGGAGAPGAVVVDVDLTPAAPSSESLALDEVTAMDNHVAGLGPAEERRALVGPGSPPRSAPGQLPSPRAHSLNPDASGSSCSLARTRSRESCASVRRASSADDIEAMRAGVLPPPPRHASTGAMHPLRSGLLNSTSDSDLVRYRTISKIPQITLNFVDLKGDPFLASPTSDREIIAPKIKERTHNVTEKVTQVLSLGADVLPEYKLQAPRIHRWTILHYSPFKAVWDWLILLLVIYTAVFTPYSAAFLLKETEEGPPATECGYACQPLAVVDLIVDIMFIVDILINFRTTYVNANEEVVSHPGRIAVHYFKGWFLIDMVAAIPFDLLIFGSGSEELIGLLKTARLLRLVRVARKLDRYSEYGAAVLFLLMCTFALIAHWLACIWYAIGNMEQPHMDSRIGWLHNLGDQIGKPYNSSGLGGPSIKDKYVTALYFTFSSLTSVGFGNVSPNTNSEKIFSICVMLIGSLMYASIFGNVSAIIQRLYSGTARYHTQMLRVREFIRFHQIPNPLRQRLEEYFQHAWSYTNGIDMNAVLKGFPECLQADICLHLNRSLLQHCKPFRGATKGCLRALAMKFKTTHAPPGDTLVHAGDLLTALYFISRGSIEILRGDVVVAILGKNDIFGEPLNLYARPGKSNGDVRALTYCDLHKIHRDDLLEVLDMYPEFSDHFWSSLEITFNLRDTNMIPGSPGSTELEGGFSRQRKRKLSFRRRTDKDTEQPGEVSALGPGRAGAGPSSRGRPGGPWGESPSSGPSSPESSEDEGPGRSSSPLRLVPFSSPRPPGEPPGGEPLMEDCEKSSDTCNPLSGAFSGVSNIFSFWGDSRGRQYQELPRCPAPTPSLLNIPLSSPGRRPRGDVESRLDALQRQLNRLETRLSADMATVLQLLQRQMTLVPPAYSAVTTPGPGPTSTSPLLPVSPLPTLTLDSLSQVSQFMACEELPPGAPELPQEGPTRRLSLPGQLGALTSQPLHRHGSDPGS

Sequence of Tyrosine-protein kinase JAK2 (O60674 whole entry): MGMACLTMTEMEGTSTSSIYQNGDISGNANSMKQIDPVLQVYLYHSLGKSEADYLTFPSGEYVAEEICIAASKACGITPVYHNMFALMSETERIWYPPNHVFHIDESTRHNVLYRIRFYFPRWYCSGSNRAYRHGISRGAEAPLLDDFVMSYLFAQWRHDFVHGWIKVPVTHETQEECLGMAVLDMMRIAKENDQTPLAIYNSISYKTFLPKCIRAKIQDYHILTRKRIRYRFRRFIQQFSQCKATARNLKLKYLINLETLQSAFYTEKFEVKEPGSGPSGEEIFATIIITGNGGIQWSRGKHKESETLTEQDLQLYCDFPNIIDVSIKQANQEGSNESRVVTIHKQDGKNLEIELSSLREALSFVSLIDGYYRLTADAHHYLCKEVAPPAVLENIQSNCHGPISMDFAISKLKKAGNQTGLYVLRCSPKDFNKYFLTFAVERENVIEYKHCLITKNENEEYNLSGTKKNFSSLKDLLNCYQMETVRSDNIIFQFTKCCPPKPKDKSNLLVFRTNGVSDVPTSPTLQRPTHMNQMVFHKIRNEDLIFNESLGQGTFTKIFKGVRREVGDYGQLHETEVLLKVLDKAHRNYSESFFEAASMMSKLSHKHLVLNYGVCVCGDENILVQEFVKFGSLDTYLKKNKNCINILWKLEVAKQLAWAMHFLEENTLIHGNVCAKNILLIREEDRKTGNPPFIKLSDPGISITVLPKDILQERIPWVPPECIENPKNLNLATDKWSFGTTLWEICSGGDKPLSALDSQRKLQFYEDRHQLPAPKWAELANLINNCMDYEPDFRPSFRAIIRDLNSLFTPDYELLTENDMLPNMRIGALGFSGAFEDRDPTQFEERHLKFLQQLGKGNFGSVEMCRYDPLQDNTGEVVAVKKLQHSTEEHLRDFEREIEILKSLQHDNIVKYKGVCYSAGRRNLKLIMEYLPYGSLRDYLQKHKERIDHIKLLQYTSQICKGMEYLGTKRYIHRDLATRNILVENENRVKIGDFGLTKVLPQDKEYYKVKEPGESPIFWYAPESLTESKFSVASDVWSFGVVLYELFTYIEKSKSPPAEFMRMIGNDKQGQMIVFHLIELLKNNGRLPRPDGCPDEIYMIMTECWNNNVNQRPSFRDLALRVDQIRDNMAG

| pIC50 [1] | pIC50 [2] | pIC50 [3] | Drug metabolism (Liver microsome) | pIC50 [5] | SMILES | pIC50 [4] | inhibition at 30 µM (hERG) [%] |
| --- | --- | --- | --- | --- | --- | --- | --- |
| 8.85 | 6.60 | 6.34 | – | – | CCc1nc(Nc2nc3c(cc(C(=O)N(C4CC4)C4CC4)n3CC)c3c2ncn3C)sc1C | 7.04 | – |
| 9.05 | 7.72 | 7.72 | metabolite_detected | – | CCn1c(C(=O)N(C2CC2)C2CC2)cc2c3c(ncn3C)c(Nc3nc(C)c(C(=O)NC)s3)nc21 | 6.92 | – |
| 8.51 | 7.66 | 7.31 | metabolite_detected | – | CCn1c(C(=O)N(C2CC2)C2CC2)cc2c3c(ncn3C)c(Nc3nc(C(=O)NC)c(C)s3)nc21 | 7.00 | – |

Continued, compound first:

| SMILES | pIC50 [1] | pIC50 [2] | pIC50 [3] | Drug metabolism (Liver microsome) | pIC50 [5] | pIC50 [4] | inhibition at 30 µM (hERG) [%] |
| --- | --- | --- | --- | --- | --- | --- | --- |
| CCn1c(C(=O)N(C2CC2)C2CC2)cc2c3c(ncn3C)c(Nc3nc(C)c(S(C)(=O)=O)s3)nc21 | – | 7.40 | 7.28 | metabolite_detected | – | 7.29 | – |
| CCn1c(C(=O)N(C2CC2)C2CC2)cc2c3c(ncn3C)c(Nc3nc(C)c(C(=O)N4CCS(=O)(=O)CC4)s3)nc21 | 9.15 | 7.32 | 7.51 | – | – | 6.48 | – |
| CCn1c(C(=O)N(C2CC2)C2CC2)cc2c3c(ncn3C)c(Nc3nc(C)n(C)n3)nc21 | 7.48 | 5.22 | 5.42 | – | – | 5.89 | – |
| CCn1nc(Nc2nc3c(cc(C(=O)N(C4CC4)C4CC4)n3CC)c3c2ncn3C)cc1C | – | 6.48 | 6.68 | – | 6.66 | 7.26 | 75 |
| CCn1c(C(=O)N(C2CC2)C2CC2)cc2c3c(ncn3C)c(Nc3cc(C)nn3C)nc21 | 6.64 | 6.27 | 5.30 | – | 5.64 | < 5.70 | – |
| CCn1c(C(=O)N(C2CC2)C2CC2)cc2c3c(ncn3C)c(Nc3cc(C)[nH]n3)nc21 | 8.92 | 7.80 | 7.06 | – | 8.72 | 7.28 | – |
